# In patent US12098145B2 (Libra Therapeutics, Inc., priority 2022, dated 2024):
# Like-named read-outs stand apart in the source and are kept apart here.
# Experiments:
# TRPML1 = biological target: T1, TRPML1 (Homo sapiens, UniProt Q9GZU1); assay: Cellular TRPML1 assay (FLIPR, GCaMP6f calcium read-out); assay type: cell-based
# T1 construct: expressed in transfected cells; host or cells: HEK T-REx cells stably expressing GCaMP6f and TRPML1
# Summary of the method: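 HEK T-REx cells stably expressing TRPML1 and GCaMP6f, seeded 24 h before in Optimem + 0.5% FBS. After ~10 min pre-incubation at room temperature, compounds in Ca2+-free Tyrode's buffer were injected on FLIPR Tetra (final DMSO 0.5%). Calcium fluorescence kinetics followed for 300 s.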
# TFEB = TFEB translocation assay (TFEB reporter in U2OS cells, imaging); assay type: cell-based; settings: Homo sapiens; U2OS cell line with TFEB reporter, 2 hours incubation, nucleus to cytoplasm ratio, normalized to Torin-1; read-out: TFEB Translocation pEC50 (converted)
# Summary of the method: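 U2OS cells stably expressing mRFP-fused TFEB reporter, switched to Opti-MEM then treated 2 h at 37 °C with compounds (0.5% DMSO, 0.015% Tween 80). Hoechst-stained, PFA-fixed cells imaged at 20×; nucleus/cytoplasm intensity ratio per well normalized to Torin-1 (100%) and DMSO (0%).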
# [1] = HEKT-REx/GCaMP6f/TRPML1 cells, FLIPR TETRA, kinetic response over 300 seconds, read-out: TRPML1 FLIPR pEC50 (converted)
# T1 sequence (Q9GZU1 whole entry): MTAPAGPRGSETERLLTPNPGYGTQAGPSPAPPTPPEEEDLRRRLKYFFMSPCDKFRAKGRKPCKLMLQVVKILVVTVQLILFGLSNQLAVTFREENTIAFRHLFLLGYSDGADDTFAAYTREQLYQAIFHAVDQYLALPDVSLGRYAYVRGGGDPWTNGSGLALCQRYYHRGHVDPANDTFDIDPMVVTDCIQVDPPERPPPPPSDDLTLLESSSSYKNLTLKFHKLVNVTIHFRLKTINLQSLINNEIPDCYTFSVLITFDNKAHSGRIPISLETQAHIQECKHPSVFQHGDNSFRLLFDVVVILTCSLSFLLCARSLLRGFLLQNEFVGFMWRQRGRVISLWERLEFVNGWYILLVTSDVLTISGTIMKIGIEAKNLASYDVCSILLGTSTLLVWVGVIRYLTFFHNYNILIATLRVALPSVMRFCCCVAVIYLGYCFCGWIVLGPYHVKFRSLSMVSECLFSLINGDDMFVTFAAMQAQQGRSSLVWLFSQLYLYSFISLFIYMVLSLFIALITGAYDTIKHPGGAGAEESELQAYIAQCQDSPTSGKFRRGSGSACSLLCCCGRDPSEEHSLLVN
Structure (SMILES),EC50 (TRPML1; [1]) [nM],EC50 (TFEB) [nM],EC50 (TRPML1) [nM]
"Cc1cc(NC(=O)c2nc(N3CCCC3)oc2CC(F)(F)F)cc(F)c1NC1CC2CC(C2)C1 (stereo not drawn) [Example 193, N-(4-(bicyclo[3.1.1]heptan-3-ylamino)-3-fluoro-5-methylphenyl)-2-(pyrrolidin-1-yl)-5-(2,2,2-trifluoroethyl)oxazole-4-carboxamide]",10 to 1000,10 to 1000,–
"COC1(C)CN(c2nc(C(=O)Nc3cc(C)c(NC4C5CCCC4CC5)c(F)c3)c(CC(F)(F)F)o2)C1 (stereo not drawn) [Example 195, N-(4-(bicyclo[3.2.1]octan-8-ylamino)-3-fluoro-5-methylphenyl)-2-(3-methoxy-3-methylazetidin-1-yl)-5-(2,2,2-trifluoroethyl)oxazole-4-carboxamide]",10 to 1000,10 to 1000,–
"COC1(C)CN(c2nc(C(=O)Nc3cc(F)c(N4C5CCCC4CC5)c(C#N)c3)c(CC(F)(F)F)o2)C1 [Example 196, N-(4-(8-azabicyclo[3.2.1]octan-8-yl)-3-cyano-5-fluorophenyl)-2-(3-methoxy-3-methylazetidin-1-yl)-5-(2,2,2-trifluoroethyl)oxazole-4-carboxamide]",–,10 to 1000,10 to 1000
"COC1(C)CN(c2nc(C(=O)Nc3ccc(N4C5CCCC4CC5)c(C#N)c3)c(CC(F)(F)F)o2)C1 [Example 197, N-(4-(8-azabicyclo[3.2.1]octan-8-yl)-3-cyanophenyl)-2-(3-methoxy-3-methylazetidin-1-yl)-5-(2,2,2-trifluoroethyl)oxazole-4-carboxamide]",–,10 to 1000,10 to 1000
"CC1(C)CN(c2nc(C(=O)Nc3cc(F)c(N4C5CCCC4CC5)c(F)c3)c(CC(F)(F)F)o2)C1 [Example 200, N-(4-(8-azabicyclo[3.2.1]octan-8-yl)-3,5-difluorophenyl)-2-(3,3-dimethylazetidin-1-yl)-5-(2,2,2-trifluoroethyl)oxazole-4-carboxamide]",–,10 to 1000,10 to 1000
"O=C(Nc1cc(F)c(N2C3CCCC2CC3)c(F)c1)c1nc(N2CC3COCC3C2)oc1CC(F)(F)F (stereo not drawn) [Example 201, N-(4-(8-azabicyclo[3.2.1]octan-8-yl)-3,5-difluorophenyl)-2-(tetrahydro-1H-furo[3,4-c]pyrrol-5(3H)-yl)-5-(2,2,2-trifluoroethyl)oxazole-4-carboxamide]",–,10 to 1000,10 to 1000
"O=C(Nc1ccc(N2CC3CC(C3)C2)c(F)c1)c1nc(N2CCC3(COC3)C2)oc1CC(F)(F)F [Example 202, N-(4-(3-azabicyclo[3.1.1]heptan-3-yl)-3-fluorophenyl)-2-(2-oxa-6-azaspiro[3.4]octan-6-yl)-5-(2,2,2-trifluoroethyl)oxazole-4-carboxamide]",–,10 to 1000,10 to 1000
"CCC1(OC)CN(c2nc(C(=O)Nc3cc(F)c(N4CC5CC(C5)C4)c(F)c3)c(CC(F)(F)F)o2)C1 [Example 203, N-(4-(3-azabicyclo[3.1.1]heptan-3-yl)-3,5-difluorophenyl)-2-(3-ethyl-3-methoxyazetidin-1-yl)-5-(2,2,2-trifluoroethyl)oxazole-4-carboxamide]",–,10 to 1000,10 to 1000
"CCC1(OC)CN(c2nc(C(=O)Nc3cc(F)c(N4C5CCCC4CC5)c(F)c3)c(CC(F)(F)F)o2)C1 [Example 206, N-(4-(8-azabicyclo[3.2.1]octan-8-yl)-3,5-difluorophenyl)-2-(3-ethyl-3-methoxyazetidin-1-yl)-5-(2,2,2-trifluoroethyl)oxazole-4-carboxamide]",–,10 to 1000,10 to 1000
"COC1(C)CN(c2nc(C(=O)Nc3cc(F)c(N4C5CCCC4CC5)c(F)c3)c(CC(F)(F)F)o2)C1 [Example 207, N-(4-(8-azabicyclo[3.2.1]octan-8-yl)-3,5-difluorophenyl)-2-(3-methoxy-3-methylazetidin-1-yl)-5-(2,2,2-trifluoroethyl)oxazole-4-carboxamide]",–,10 to 1000,10 to 1000
"CCc1oc(N2CC(CC)(OC)C2)nc1C(=O)Nc1cc(F)c(O[C@@H]2C[C@@H]3C[C@@H]3C2)c(Cl)c1 [Example 219, N-(4-(cis-bicyclo[3.1.0]hexan-3-yloxy)-3-chloro-5-fluorophenyl)-5-ethyl-2-(3-ethyl-3-methoxyazetidin-1-yl)oxazole-4-carboxamide]",10 to 1000,10 to 1000,–

# Continued, in another order:
EC50 (TRPML1; [1]) [nM],Structure (SMILES),EC50 (TFEB) [nM],EC50 (TRPML1) [nM]
10 to 1000,"CCC1(COC)CN(c2nc(C(=O)Nc3cc(F)c(O[C@@H]4C[C@@H]5C[C@@H]5C4)c(F)c3)c(CC(F)(F)F)o2)C1 [Example 165, N-(4-(cis-bicyclo[3.1.0]hexan-3-yloxy)-3,5-difluorophenyl)-2-(3-ethyl-3-(methoxymethyl)azetidin-1-yl)-5-(2,2,2-trifluoroethyl)oxazole-4-carboxamide]",10 to 1000,–
10 to 1000,"O=C(Nc1cc(F)c(O[C@@H]2C[C@@H]3C[C@@H]3C2)c(F)c1)c1nc(N2CCC23CCC3)oc1CC(F)(F)F [Example 170, N-(4-(cis-bicyclo[3.1.0]hexan-3-yloxy)-3,5-difluorophenyl)-2-(1-azaspiro[3.3]heptan-1-yl)-5-(2,2,2-trifluoroethyl)oxazole-4-carboxamide]",10 to 1000,–
10 to 1000,"O=C(Nc1ccc(O[C@@H]2C[C@@H]3C[C@@H]3C2)c(F)c1)c1nc(N2CC3(CCOCC3)C2)oc1CC(F)(F)F [Example 171, N-(4-(cis-bicyclo[3.1.0]hexan-3-yloxy)-3-fluorophenyl)-2-(7-oxa-2-azaspiro[3.5]nonan-2-yl)-5-(2,2,2-trifluoroethyl)oxazole-4-carboxamide]",10 to 1000,–
10 to 1000,"CC1(C)CCCN1c1nc(C(=O)Nc2cc(F)c(O[C@@H]3C[C@@H]4C[C@@H]4C3)c(F)c2)c(CC(F)(F)F)o1 [Example 172, N-(4-(cis-bicyclo[3.1.0]hexan-3-yloxy)-3,5-difluorophenyl)-2-(2,2-dimethylpyrrolidin-1-yl)-5-(2,2,2-trifluoroethyl)oxazole-4-carboxamide]",10 to 1000,–
10 to 1000,"O=C(Nc1cc(F)c(O[C@@H]2C[C@@H]3C[C@@H]3C2)c(F)c1)c1nc(N2CC3(CCCO3)C2)oc1CC(F)(F)F [Example 173, N-(4-(cis-bicyclo[3.1.0]hexan-3-yloxy)-3,5-difluorophenyl)-2-(5-oxa-2-azaspiro[3.4]octan-2-yl)-5-(2,2,2-trifluoroethyl)oxazole-4-carboxamide]",10 to 1000,–
10 to 1000,"O=C(Nc1cc(F)c(O[C@@H]2C[C@@H]3C[C@@H]3C2)c(F)c1)c1nc(N2CCCCCC2)oc1CC(F)(F)F [Example 174, 2-(azepan-1-yl)-N-(4-(cis-bicyclo[3.1.0]hexan-3-yloxy)-3,5-difluorophenyl)-5-(2,2,2-trifluoroethyl)oxazole-4-carboxamide]",10 to 1000,–
10 to 1000,"O=C(Nc1cc(F)c(OC2CC3C[C@@H]3C2)c(F)c1)c1nc(N2CC3CCC3C2)oc1CC(F)(F)F (stereo partly drawn) [Example 177, N-(4-(cis-bicyclo[3.1.0]hexan-3-yloxy)-3,5-difluorophenyl)-2-(3-azabicyclo[3.2.0]heptan-3-yl)-5-(2,2,2-trifluoroethyl)oxazole-4-carboxamide]",10 to 1000,–
10 to 1000,"COC1(C)CN(c2nc(C(=O)Nc3cc(F)c(O[C@@H]4C[C@@H]5C[C@@H]5C4)c(F)c3)c(CC(F)(F)F)o2)C1 [Example 178, N-(4-(cis-bicyclo[3.1.0]hexan-3-yloxy)-3,5-difluorophenyl)-2-(3-methoxy-3-methylazetidin-1-yl)-5-(2,2,2-trifluoroethyl)oxazole-4-carboxamide]",10 to 1000,–
10 to 1000,"O=C(Nc1cc(F)c(OC2CC3C[C@H]3C2)c(F)c1)c1nc(N2C[C@H]3CCO[C@H]3C2)oc1CC(F)(F)F (stereo partly drawn) [Example 179, N-(4-(cis-bicyclo[3.1.0]hexan-3-yloxy)-3,5-difluorophenyl)-2-((3aR,6aR)-hexahydro-5H-furo[2,3-c]pyrrol-5-yl)-5-(2,2,2-trifluoroethyl)oxazole-4-carboxamide]",10 to 1000,–
10 to 1000,"O=C(Nc1cc(F)c(OC2CC3C[C@H]3C2)c(F)c1)c1nc(N2C[C@@H]3CCO[C@@H]3C2)oc1CC(F)(F)F (stereo partly drawn) [Example 180, N-(4-(cis-bicyclo[3.1.0]hexan-3-yloxy)-3,5-difluorophenyl)-2-((3aS,6aS)-hexahydro-5H-furo[2,3-c]pyrrol-5-yl)-5-(2,2,2-trifluoroethyl)oxazole-4-carboxamide]",10 to 1000,–
10 to 1000,"CCC1(CC)CN(c2nc(C(=O)Nc3cc(F)c(O[C@@H]4C[C@@H]5C[C@@H]5C4)c(F)c3)c(CC(F)(F)F)o2)C1 [Example 183, N-(4-(cis-bicyclo[3.1.0]hexan-3-yloxy)-3,5-difluorophenyl)-2-(3,3-diethylazetidin-1-yl)-5-(2,2,2-trifluoroethyl)oxazole-4-carboxamide]",10 to 1000,–
10 to 1000,"O=C(Nc1cc(F)c(OC2CC3C[C@@H]3C2)c(F)c1)c1nc(N2CCC3CCCC32)oc1CC(F)(F)F (stereo partly drawn) [Example 185, N-(4-(cis-bicyclo[3.1.0]hexan-3-yloxy)-3,5-difluorophenyl)-2-(hexahydrocyclopenta[b]pyrrol-1(2H)-yl)-5-(2,2,2-trifluoroethyl)oxazole-4-carboxamide]",10 to 1000,–
10 to 1000,"O=C(Nc1cc(F)c(OC2CC3C[C@@H]3C2)c(F)c1)c1nc(N2CC3COCC3C2)oc1CC(F)(F)F (stereo partly drawn) [Example 186, N-(4-(cis-bicyclo[3.1.0]hexan-3-yloxy)-3,5-difluorophenyl)-2-(tetrahydro-1H-furo[3,4-c]pyrrol-5(3H)-yl)-5-(2,2,2-trifluoroethyl)oxazole-4-carboxamide]",10 to 1000,–
